± gives the expanded uncertainty stated by the source.
O=C1CCCCCN1 [1-aza-2-cycloheptanone]
Settings	vapor or sublimation pressure [kPa]
293.43 K, Crystal, Calculated from knudsen effusion weight loss	0.000153 ± 9e-06
298.39 K, Crystal, Calculated from knudsen effusion weight loss	0.000275 ± 1.7e-05
302.3 K, Crystal, Transpiration method	0.00043 ± 3e-05
303.32 K, Crystal, Calculated from knudsen effusion weight loss	0.000474 ± 2.9e-05
305.4 K, Crystal, Transpiration method	0.00066 ± 4e-05
306.2 K, Crystal, Transpiration method	0.0007 ± 4e-05
308.31 K, Crystal, Calculated from knudsen effusion weight loss	0.000813 ± 5.1e-05
308.38 K, Crystal, Calculated from knudsen effusion weight loss	0.000858 ± 5.4e-05
309.2 K, Crystal, Transpiration method	0.00093 ± 6e-05
312.2 K, Crystal, Transpiration method	0.00127 ± 8e-05
313.22 K, Crystal, Calculated from knudsen effusion weight loss	0.00143 ± 0.00013
314.7 K, Crystal, Transpiration method	0.00175 ± 0.00011
316.7 K, Crystal, Transpiration method	0.0021 ± 0.00013
318.09 K, Crystal, Calculated from knudsen effusion weight loss	0.00235 ± 0.00023
321.1 K, Crystal, Transpiration method	0.00327 ± 0.0002
321.3 K, Crystal, Transpiration method	0.00365 ± 0.00023
322.98 K, Crystal, Calculated from knudsen effusion weight loss	0.00393 ± 0.00041
323.06 K, Crystal, Calculated from knudsen effusion weight loss	0.00379 ± 0.0004
323.9 K, Crystal, Transpiration method	0.00427 ± 0.00026
326.3 K, Crystal, Transpiration method	0.00568 ± 0.00035
327.93 K, Crystal, Calculated from knudsen effusion weight loss	0.00636 ± 0.00071
328 K, Crystal, Calculated from knudsen effusion weight loss	0.0061 ± 0.00068
328.3 K, Crystal, Transpiration method	0.00668 ± 0.00041
330.2 K, Crystal, Transpiration method	0.00801 ± 0.00049
332.89 K, Crystal, Calculated from knudsen effusion weight loss	0.01 ± 0.0012
332.93 K, Crystal, Calculated from knudsen effusion weight loss	0.0105 ± 0.0012
333.2 K, Crystal, Transpiration method	0.01064 ± 0.00065
336.3 K, Crystal, Transpiration method	0.01422 ± 0.00087
337.4 K, Crystal, Transpiration method	0.01727 ± 0.0011
337.82 K, Crystal, Calculated from knudsen effusion weight loss	0.0155 ± 0.0019
339 K, Crystal, Transpiration method	0.01833 ± 0.0011
345.2 K, Liquid, Transpiration method	0.0319 ± 0.002
345.8 K, Liquid, Transpiration method	0.0322 ± 0.002
347.8 K, Liquid, Transpiration method	0.0376 ± 0.0023
350.9 K, Liquid, Transpiration method	0.0457 ± 0.0028
353.9 K, Liquid, Transpiration method	0.0564 ± 0.0035
355.4 K, Liquid, Transpiration method	0.0612 ± 0.0037
357 K, Liquid, Transpiration method	0.071 ± 0.0043
359.1 K, Liquid, Transpiration method	0.0758 ± 0.0046
360.2 K, Liquid, Transpiration method	0.089 ± 0.0055
362.1 K, Liquid, Transpiration method	0.0992 ± 0.0061
363.1 K, Liquid, Transpiration method	0.103 ± 0.0063
364.9 K, Liquid, Transpiration method	0.1189 ± 0.0073
366.3 K, Liquid, Transpiration method	0.1294 ± 0.0079
369.7 K, Liquid, Transpiration method	0.16 ± 0.0098
372.2 K, Liquid, Transpiration method	0.1866 ± 0.011

Source: the NIST ThermoML archive (doi:10.1021/je050277k)
